Measurements: patent US10653688B2, “6-(6-membered heteroaryl and aryl)isoquinolin-3-yl carboxamides and preparation and use thereof” (Samumed, LLC, priority 2017, dated 2020)
pEC50: −log10 of the molar value. Like-named read-outs stand apart in the source and are kept apart here.

Columns and labels:
[1] = system: IL-6 in human peripheral blood mononuclear cells (huPBMCs); test: IL-6 inhibition in LPS-stimulated human peripheral blood mononuclear cells (HTRF); type: cell-based; conditions: Homo sapiens, PBMC; for pEC50: LPS 50 ng/mL, 22 hours, IL-6 HTRF; for inhibition at 10 µM: read-out: percent inhibition at 10 μM (given for EC50 >10 μM), LPS, IL-6, 10 μM
In short: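 Fresh normal human PBMCs at 1×10e6 cells/mL in RPMI with 1% FBS received compound, then 50 ng/mL E. coli 0111:B4 LPS 2 h later, and were incubated a further 22 h at 37° C. IL-6 read by HTRF (665/620 nm ratio), normalized to DMSO; EC50 from 4-parameter fit.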

[2] = system: LL29 cells (primary human fibroblasts derived from IPF patients), α-smooth muscle actin; test: Inhibition of fibrotic process: TGF-β1-treated primary human fibroblasts, αSMA staining; type: cell-based; conditions: Homo sapiens, Fibroblast; for pEC50: 96 h, TGF-β1 20 ng/mL, 4 days, % cells positive for αSMA; for inhibition at 10 µM: read-out: percent inhibition at 10 μM (given for EC50 >10 μM), TGF-β1, αSMA, 10 μM;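 on all read-outs here: controls were TGF-β1-stimulated wells with DMSO vehicle as the positive reference and cells given DMSO alone as the negative reference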
recombinant GSK3β kinase = recombinant GSK3β kinase (Homo sapiens (Human), UniProt P49841); test: GSK3β kinase assay (Ser/Thr 09 peptide Z-lyte, FRET); type: biochemical;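 further: FRET read-out as coumarin over fluorescein emission ratio, compounds incubated one hour at room temperature, IC50 from dose-response curve fit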
recombinant GSK3β kinase, sequence (P49841 whole entry): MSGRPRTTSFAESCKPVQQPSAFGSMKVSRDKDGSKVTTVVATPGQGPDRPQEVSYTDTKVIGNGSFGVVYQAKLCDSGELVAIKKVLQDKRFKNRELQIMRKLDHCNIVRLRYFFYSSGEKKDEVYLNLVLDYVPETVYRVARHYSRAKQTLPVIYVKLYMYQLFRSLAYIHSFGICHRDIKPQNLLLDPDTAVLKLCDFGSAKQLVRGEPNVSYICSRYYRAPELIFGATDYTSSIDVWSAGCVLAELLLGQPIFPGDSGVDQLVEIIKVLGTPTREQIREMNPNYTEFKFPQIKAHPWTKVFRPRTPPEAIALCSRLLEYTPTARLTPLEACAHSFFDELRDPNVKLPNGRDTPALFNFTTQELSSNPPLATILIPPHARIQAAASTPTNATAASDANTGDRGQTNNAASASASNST

[3] = system: SW480 colon carcinoma cells; test: Cell viability assay (CellTiter-Glo); type: cell-based, human; conditions: Homo sapiens; for pEC50: 96 h, four days, CellTiter-Glo; for inhibition at 10 µM: read-out: percent inhibition at 10 μM (given for EC50 >10 μM), 10 μM
[4] = system: pT212Tau in Dyrk1a- and MAPT-overexpressing HEK293T cells; test: Tau phosphorylation at Threonine 212 (pT212Tau) sandwich ELISA in double transfected cells; conditions: Homo sapiens, HEK-293T, read-out: Thr212 EC50 (μM)
Procedure: HEK293T cells (transfectable human embryonic kidney cells) were cultured in DMEM medium supplemented with 10% FBS and 1% penicillin/streptomycin.
HEK293T cells were transiently transfected to overexpress Dyrk1a and microtubule-associated protein Tau (MAPT) genes. Specifically, Dyrk1a and MAPT expression vectors were obtained from OriGene (10 μg of each, catalog numbers SC314641 and RC216166, respectively). […] HEK293T cells were seeded at 1.0×10^7 cells in 10 mL per T-75 flask. […] One T-75 flask was designated as a no-vector negative control for pT212Tau signal.
After 4-6 hours of incubation in transfection reagents, transiently double transfected HEK293T cells were dissociated by treatment with trypsin EDTA and seeded at 1.0×10^5 cells in 100 μL per well in 96-well plates. No-vector negative controls were seeded in separate 96-well plates to avoid the risk of the negative control cells picking up the overexpression during incubation.
96-well flat-bottom plates were coated with 100 μL per well anti-HT7 capture antibody (ThermoFisher, MN1000) diluted 1:300 in 1×PBS at 4° C. overnight, with shaking at 500 rpm.
Cells were then lysed with 100 μL 1×RIPA buffer supplemented with phosphatase and protease inhibitors (each diluted to a final 1×). […] V-bottom plates were centrifuged at 4000 rpm, 4° C., for 15 minutes, and 100 μL of lysate supernatant from each well was directly tested for pT212Tau signal by sandwich ELISA.

[5] = system: Wnt activity (SW480 colon carcinoma cells stably expressing the Sp5-Luc reporter gene); test: Wnt activity screening assay (Sp5-Luc reporter gene assay); type: cell-based, human; conditions: Homo sapiens; for pEC50: 36 to 48 hours; for inhibition at 10 µM: read-out: percent inhibition at 10 μM (given for EC50 >10 μM), 10 μM
In short: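 SW480 colon carcinoma cells stably carrying a lentiviral luciferase reporter driven by an Sp5 promoter with eight TCF/LEF sites, plated at 4,000 cells/well in DMEM with 1% FBS. Compound exposure for 36–48 h at 37 °C, then luminescence read. Signals normalized to DMSO; EC50 from four-parameter nonlinear fit.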

[6] = system: secreted cytokines TNFα, IL-6 and KC-GRO in BV-2 cells (mouse microglial cells); test: Secreted cytokines in lipopolysaccharide-stimulated mouse glial cell line; type: cell-based; conditions: LPS 250 ng/mL 5 hours, table does not say which cytokine
Procedure: Representative compounds were screened using the cell-based assay procedure for secreted cytokines in a Lipopolysaccharide-stimulated mouse glial cell line described below.
BV-2 cells (mouse microglial cells) were cultured in 1:1 DMEM medium supplemented with 10% FBS, and 1% penicillin/streptomycin.
BV-2 cells are plated at 35,000 cells/well in a volume of 100 μl for at least 4 hours before compounds are added. DMSO-resuspended compounds were first dispensed in a 96-well plate and serial diluted from 10 μM to 4.6 nM final concentration in medium. Compounds were added to cells overnight. 250 ng/mL of lipopolysaccharide (Escherichia coli O111:B4, SIGMA) was added for 5 hours. Supernatant is removed and saved for further cytokine detection. The original plates with seeded cells were tested for cytotoxicity by measure of adenosine triphosphate (ATP) release by adding CellTiter-Glo® diluted 1:4 in distilled water (G7573, Promega) and transferring lysed cells to a completely black 96-well plate to be read with the Cytation3. Supernatant was then diluted 1:2 with a diluent from V-PLEX cytokine Kit and directly tested for the secreted cytokines TNFα, IL-6 and KC-GRO using electrochemiluminescence (Meso Scale Discovery). The standard curve for each cytokine was used to convert the electrochemiluminescent signal into pg of protein per mL. The signal was used to plot, draw the curve fitting, and determine each compounds EC50 in Prism (GraphPad).

[7] = target: recombinant DYRK1A kinase (Homo sapiens (Human), UniProt Q13627); test: DYRK1A kinase assay (Ser/Thr 18 peptide Z-lyte, FRET)
[8] = GSK3β kinase, head says EC50, method says IC50, ATP 46 μM
[9] = DYRK1A kinase, head says EC50, method says IC50, ATP 30 μM

Molecule O=C(CN1CCOCC1)Nc1cc2cc(-c3cncc(F)c3)ccc2cn1 [Compound 22, N-(6-(5-Fluoropyridin-3-yl)isoquinolin-3-yl)-2-morpholinoacetamide] has a pEC50 [1] of less than 5.00, an inhibition at 10 µM [1] of 22.9% and a pEC50 [2] of 5.69. The pEC50 (recombinant GSK3β kinase) was 5.75, the pEC50 [3] was less than 5.00 and the inhibition at 10 µM [3] was 17.2%. For the same molecule, the EC50 [4] was 0.253 µM, the pEC50 [5] was less than 5.00 and the inhibition at 10 µM [5] was 10.9%. The pEC50 [6] was 5.88 and the pEC50 [7] was 7.15.
Molecule O=C(Nc1cc2cc(-c3cncc(C(F)F)c3)ccc2cn1)c1cccc(C2CCNCC2)c1 [Compound 26, N-(6-(5-(Difluoromethyl)pyridin-3-yl)isoquinolin-3-yl)-3-(piperidin-4-yl)benzamide] has a pEC50 [1] of 5.88, a pEC50 [2] of 5.88 and a pEC50 (recombinant GSK3β kinase; [8]) of less than 5.00. The pEC50 [3] was 5.73, the EC50 [4] was 1.4 µM and the pEC50 [5] was 5.81. The pEC50 [6] was 6.32 and the pEC50 [7, 9] was 7.54.
With CN1CCC(c2cccc(C(=O)Nc3cc4cc(-c5cncc(C(F)F)c5)ccc4cn3)c2)CC1 [Compound 27, N-(6-(5-(Difluoromethyl)pyridin-3-yl)isoquinolin-3-yl)-3-(1-methylpiperidin-4-yl)benzamide] the pEC50 [1] was 5.04, the pEC50 [2] was 6.01 and the pEC50 (recombinant GSK3β kinase; [8]) was less than 5.00. For the same molecule, the pEC50 [3] was 5.71, the EC50 [4] was 6.8 µM and the pEC50 [5] was 5.95. The pEC50 [6] was 6.07 and the pEC50 [7, 9] was 7.54.
In the case of CN1CCN(c2cc(C(=O)Nc3cc4cc(-c5cncc(C(F)F)c5)ccc4cn3)ccn2)CC1 [Compound 28, N-(6-(5-(Difluoromethyl)pyridin-3-yl)isoquinolin-3-yl)-2-(4-methylpiperazin-1-yl)isonicotinamide], the pEC50 [1] was 5.13, the pEC50 [2] was 5.82 and the pEC50 (recombinant GSK3β kinase; [8]) was less than 5.00. It also gave a pEC50 [3] of 5.38, an EC50 [4] of 1.6 µM and a pEC50 [5] of 5.33. For the same molecule, the pEC50 [6] was 6.53 and the pEC50 [7, 9] was 7.96.
With O=C(CN1CCOCC1)Nc1cc2cc(-c3cccnn3)ccc2cn1 [Compound 66, 2-morpholino-N-(6-(pyridazin-3-yl)isoquinolin-3-yl)acetamide] the pEC50 [1] was less than 5.00, the inhibition at 10 µM [1] was 8.1% and the pEC50 [2] was less than 5.00. For the same molecule, the inhibition at 10 µM [2] was 10.6%, the pEC50 (recombinant GSK3β kinase) was 6.07 and the pEC50 [3] was less than 5.00. The inhibition at 10 µM [3] was 17.5%, the EC50 [4] was 0.791 µM and the pEC50 [5] was less than 5.00. The inhibition at 10 µM [5] was 8.2%, the pEC50 [6] was 5.53 and the pEC50 [7] was 6.91.
Work on O=C(CN1CCCC1)Nc1cc2cc(-c3cnccn3)ccc2cn1 [Compound 74, N-(6-(Pyrazin-2-yl)isoquinolin-3-yl)-2-(pyrrolidin-1-yl)acetamide] yielded a pEC50 [1] of less than 5.00, an inhibition at 10 µM [1] of 4.9% and a pEC50 [2] of less than 5.00. For the same molecule, the inhibition at 10 µM [2] was 18.7%, the pEC50 (recombinant GSK3β kinase; [8]) was 5.77 and the pEC50 [3] was less than 5.00. For the same molecule, the inhibition at 10 µM [3] was 125%, the EC50 [4] was 2.1 µM and the pEC50 [5] was less than 5.00. It also gave an inhibition at 10 µM [5] of 17.5%, a pEC50 [6] of 5.84 and a pEC50 [7, 9] of 7.03.
Work on O=C(CN1CCOCC1)Nc1cc2cc(-c3cnccn3)ccc2cn1 [Compound 79, 2-Morpholino-N-(6-(pyrazin-2-yl)isoquinolin-3-yl)acetamide] yielded a pEC50 [1] of less than 5.00, an inhibition at 10 µM [1] of 3.9% and a pEC50 [2] of less than 5.00. It also gave an inhibition at 10 µM [2] of 17.2%, a pEC50 (recombinant GSK3β kinase; [8]) of 5.88 and a pEC50 [3] of less than 5.00. It also gave an inhibition at 10 µM [3] of 24.8%, an EC50 [4] of 0.959 µM and a pEC50 [5] of less than 5.00. The inhibition at 10 µM [5] was 7.9%, the pEC50 [6] was 5.77 and the pEC50 [7, 9] was 7.10.
